# Article PMC3770139 (Molecular cell, 2013)
# Target: T1, Gpa1 (yeast Gα) (Saccharomyces cerevisiae, UniProt P08539)
# T1 sequence (P08539 2-472): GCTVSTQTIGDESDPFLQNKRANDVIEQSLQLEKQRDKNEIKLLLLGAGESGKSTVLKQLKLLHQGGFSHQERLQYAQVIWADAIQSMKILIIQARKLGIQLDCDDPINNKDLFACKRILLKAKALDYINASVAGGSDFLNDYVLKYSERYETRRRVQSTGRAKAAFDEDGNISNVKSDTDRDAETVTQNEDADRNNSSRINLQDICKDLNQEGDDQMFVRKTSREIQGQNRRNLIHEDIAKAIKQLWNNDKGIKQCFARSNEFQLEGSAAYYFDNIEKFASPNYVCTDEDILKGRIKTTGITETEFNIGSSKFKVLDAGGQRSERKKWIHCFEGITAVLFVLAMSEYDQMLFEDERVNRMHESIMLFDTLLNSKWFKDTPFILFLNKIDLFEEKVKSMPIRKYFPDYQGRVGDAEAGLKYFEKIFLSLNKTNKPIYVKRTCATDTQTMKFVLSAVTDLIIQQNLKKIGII
# Assay: steady-state hydrolysis of gamma-32P GTP, charcoal assay
# Format: biochemical
# Details: turnover only; 5 µM GTP, 1 mM MgCl2, 37 °C, pH 6.0, 7.0, 8.0
compound,measurement,value
Nc1nc2c(ncn2[C@@H]2O[C@H](COP(=O)(O)OP(=O)(O)OP(=O)(O)O)[C@@H](O)[C@H]2O)c(=O)[nH]1 [GTP],"steady-state hydrolysis of gamma-32P GTP, charcoal assay",Steady-state GTP hydrolysis by yeast Gpa1 and mammalian Gαi
